Experimental data taken from patent US11634366B2, “Plant growth enhancer using carbon dioxide to increase plant yield and method of increasing plant yield” (Innovations for World Nutrition, LLC, priority 2020, dated 2023).

Key:
[1] = system: Oryza sativa long grain rice variety LaKast; experiment: Example 2 carbon dioxide in air bubbled into root zone of paddy rice: roots and foliage at 24 days; format: in vivo; details: for Dry Foliage Weight: total of ten plants; for Dry Root Weight: total of ten plants of one container; for % Difference in Total Nitrogen Uptake: vs air
Procedure: (§1) Example 2 tests were conducted to test whether carbon dioxide alone delivered to the roots of rice plants improves the rough rice yield and the root growth. For this example Oryza sativa long grain rice variety LaKast™ seed treated with CruiserMaxx® (an insecticide and fungicide) was carefully selected as representative of all rice grown commercially and provides an excellent model for testing commercial rice.
(§2) For the Example 2 tests, carbon dioxide diluted with air in selected amounts was bubbled into the root zone of paddy rice. The rice was planted in 18.9 L (5 gallon) containers which are 30.5 cm (12 inches) in diameter and 35.6 cm (14 inches) deep, and sets of 8 containers all received the same gas mixture. The tests were designed to end after 17 weeks, but some containers were removed earlier to visually check the roots for amount of growth.
(§3) For the Example 2 tests, the following gas mixtures were used: Air • 0.2% carbon dioxide in air • 0.5% carbon dioxide in air • 1.0% carbon dioxide in air • 2.0% carbon dioxide in air • 5.0% carbon dioxide in air • Note: 0.2% is approximately 5 times the amount of carbon dioxide currently found naturally in air
(§4) 18.9 L (5 gallon) containers were prepared by placing an aquatic gas diffuser attached to tubing at the bottom of each container and then filling the container 10.2 cm (4 inches) from the top with sieved top soil. The containers were placed on tables in a greenhouse in groups of eight so that all received approximately the same amount of light. Each group of eight containers was attached to a tank of gas with the gas being supplied through a regulator to a flow meter and then to a set of eight valves with each one controlling the gas mixture to a single container. A total of forty-eight containers were prepared, and twenty-four containers were placed on each table. Starter phosphorus was added to the soil by mixing 1.7 g of triple super phosphate into the top 7.6 cm (3 inches) of soil in each container. Soil was also given addition starter fertilizer by dissolving 150 g of urea (for nitrogen), 132 g of potassium chloride (for potassium), and 1236 g of Epsom salts (magnesium sulfate heptahydrate for magnesium) in 12 liters of water. Each container was then given 200 mL of this solution. Later, zinc was added using zinc sulfate. The containers were flooded to 1.3 cm (0.5 inches) above the surface of the soil using collected rainwater. On May 20, 2016, the rice seed was presoaked for 24 hours and then drained for 24 hours was dropped on the surface of the soil in each container. After the rice was established, the plants were thinned to 10 plants per container. At a later date, the plants were thinned again to six plants per container. The gas mixtures to the containers were started on May 20, 2016 and adjusted to an initial flow meter setting of 42.5 liters/hr. (1.5 ft^3/hr.) with a steady flow of bubbles in each container. The flow rate was turned down to 14.2 liters/hr. (0.5 ft^3/hr.) on Jun. 14, 2016. The gas flow was supplied each weekday from 8:00 am to noon. During the testing, fans in the greenhouse created a constant airflow to prevent carbon dioxide concentration around a particular group of plants.
On May 25, 2016, 10.6 g of zinc sulfate was dissolved in 10 L of water and each container was given 200 mL of this solution. As the plants grew, the flood waters were gradually raised until they reached a depth of three inches above the soil surface. A flood water depth of 5.1 to 7.6 cm (2 to 3 inches) was maintained for the remainder of the test. On Jun. 13, 2016, one front container (containing 10 plants each) for each level of carbon dioxide was withdrawn for measurement and the plants were gently removed and thoroughly cleaned. The plants and roots were then dried in an oven overnight at 80° C. The next day, the roots were trimmed and weighed. Table 6 presents the total root weights and total foliage weights of the ten plants for each container of plants. […]

[2] = system: Oryza sativa long grain rice variety LaKast; experiment: Example 2 carbon dioxide in air bubbled into root zone of paddy rice: root weights and rough rice yield at harvest; format: in vivo; details: for % Difference (root weight vs Air) / Dry Root Weight: at harvest; for Dry Root Weight: average of two containers; for Rough Rice Yield Weight: dry weight at harvest
Procedure: as §1, §2, §3, §4
On Jun. 20, 2016, the rice plants of Example 2 were thinned to six plants per container. On Aug. 1, 2016, additional nitrogen and triple super phosphate (TSP) was added to each container at the rate of 0.57 g TSP in all containers, 0.87 g of urea per container being fed normal air, and 2.27 g ammonium bicarbonate (equivalent nitrogen content as 0.87 g of urea) for the rest of the containers. This introduction of nitrogen and phosphates was to ensure no limitation in nitrogen and phosphorus for the plants and therefore ensure the testing validity of introducing carbon dioxide as a gas to the roots of the plants.
The rough rice for the Example 2 tests was harvested on Sep. 19, 2016. The rough rice was separated, and dried for seven days at 40° C. […]

In the case of O=C=O [CO2, carbon dioxide], the “% Difference of Root Weight as Compared to Air” value ([1]; 0.5% CO2 in air) is reported as 0%, the “Total Nitrogen Uptake by Foliage” value ([1]; 0.5% CO2 in air) is reported as 0.156 g and the “Dry Foliage Weight” value ([1]; 0.5% CO2 in air) is reported as 3.48 g. The “Dry Root Weight” value ([1]; 0.5% CO2 in air) was 1.26 g, the “% Difference in Total Nitrogen Uptake” value ([1]; 0.5% CO2 in air) was 8.33% and the “Total Nitrogen Uptake by Foliage” value ([1]; 2.0% CO2 in air) was 0.151 g. For the same compound, the “Dry Foliage Weight” value ([1]; 2.0% CO2 in air) was 3.43 g, the “Dry Root Weight” value ([1]; 2.0% CO2 in air) was 2.08 g and the “% Difference in Total Nitrogen Uptake” value ([1]; 2.0% CO2 in air) was 4.86%. The “weight of the foliage compared with container receiving solely air” value ([1]; each container receiving elevated carbon dioxide, in words) was “slightly more”, the “% Difference (rough rice yield vs Air)” value ([2]; 0.2% CO2 in air) was 2.9% and the “% Difference (root weight vs Air)” value ([2]; 0.2% CO2 in air) was “+35.8%”. For the same compound, the “Dry Root Weight” value ([2]; 0.2% CO2 in air) was 62.5 g, the “Rough Rice Yield Weight” value ([2]; 0.2% CO2 in air) was 91.5 g and the “% Difference (rough rice yield vs Air)” value ([2]; 0.5% CO2 in air) was 6.1%. For the same compound, the “% Difference (root weight vs Air)” value ([2]; 0.5% CO2 in air) was “+6.4%”, the “Dry Root Weight” value ([2]; 0.5% CO2 in air) was 49.0 g and the “Rough Rice Yield Weight” value ([2]; 0.5% CO2 in air) was 94.3 g. The “% Difference (rough rice yield vs Air)” value ([2]; 1.0% CO2 in air) was 11.9%, the “% Difference (root weight vs Air)” value ([2]; 1.0% CO2 in air) was “+9.6%” and the “Dry Root Weight” value ([2]; 1.0% CO2 in air) was 50.4 g. For the same compound, the “Rough Rice Yield Weight” value ([2]; 1.0% CO2 in air) was 99.5 g, the “% Difference (rough rice yield vs Air)” value ([2]; 2.0% CO2 in air) was 11.9% and the “% Difference (root weight vs Air)” value ([2]; 2.0% CO2 in air) was “+11.1%”. The “Dry Root Weight” value ([2]; 2.0% CO2 in air) was 51.1 g, the “Rough Rice Yield Weight” value ([2]; 2.0% CO2 in air) was 99.5 g and the “% Difference (rough rice yield vs Air)” value ([2]; 5.0% CO2 in air) was −3.0%. For the same compound, the “% Difference (root weight vs Air)” value ([2]; 5.0% CO2 in air) was “+20.7%”, the “Dry Root Weight” value ([2]; 5.0% CO2 in air) was 55.5 g and the “Rough Rice Yield Weight” value ([2]; 5.0% CO2 in air) was 86.2 g. For the same compound, the “average root weights at harvest compared with plants receiving just air” value ([2]; all containers receiving elevated carbon dioxide at roots, in words) was “higher” and the “grain yields compared with plants receiving just air” value ([2]; elevated carbon dioxide, with the exception of 5.0% carbon dioxide mixed with air, in words) was “higher”.
